Molecules are shown by their SMILES. Where a SMILES comes first, the peptide text is derived from it. Bridges are numbered along the chain shown (N, C = ends). Roman numbers before positions name the chains, in order. [ ]: non-standard residue; d: D form. NMeDab = CN[C@@H](CCN)C(=O)O; Tle = CC(C)(C)[C@H](N)C(=O)O; dDab = NCC[C@@H](N)C(=O)O; Nle = CCCC[C@H](N)C(=O)O; Orn = NCCC[C@H](N)C(=O)O; Dab = NCC[C@H](N)C(=O)O

Consider five compounds from patent US10829520B2, “Beta-hairpin peptidomimetics” (POLYPHOR AG, priority 2015, dated 2020).

What all share (type): cell-based
The test system of data set [1] is Klebsiella pneumoniae SSI #3010. The settings on record: SSI #3010. In outline:
(§1)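 CLSI broth microdilution in cation-adjusted Mueller-Hinton II broth with 0.002% Polysorbate 80, inoculum appr. 10^6 CFU/mL, peptides in serial two-fold dilutions. MIC (μg/mL) is the lowest concentration with no visible growth after 18-20 hours at 35° C.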

Data set [2] deals with Acinetobacter baumannii DSM 30008. As to conditions: DSM 30008. In short, it runs like this:
as §1

The next data set deals with Escherichia coli 926415. The settings on record: 926415.
Data set [3] concerns Klebsiella pneumoniae 968733. The settings on record: 968733.
In data set [4] the test system is Acinetobacter baumannii 872842. As to conditions: 872842.
Data set [5] concerns Pseudomonas aeruginosa ATCC 27853. As to conditions: ATCC 27853. In short, it runs like this: as §1
In data set [6] the test system is Escherichia coli ATCC 25922. The settings on record: ATCC 25922. In outline: as §1
For data set [7], the system named is human red blood cells (hRBC). The data set can be described thus: Hemolysis of human red blood cells. The settings on record: red cells of human, 1 h, 100. In short, it runs like this: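 Washed fresh human erythrocytes (20% v/v, ~0.9×10^9 cells/mL final) were incubated with peptides at 100 μg/mL for 1 h at 37 °C with shaking. Supernatant OD540 measured; hemolysis expressed as % of 2.5% Triton X-100 lysis, with PBS/0.001% acetic acid as 0%.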

Take `CCCC[C@@H]1NC(=O)[C@@H]2CCCN2C(=O)[C@H]2CCCN2C(=O)[C@H](CO)NC(=O)[C@H](C)NC(=O)[C@H](C(C)(C)C)NC(=O)[C@H](CCN)NC(=O)[C@H](Cc2c[nH]c3ccccc23)NC(=O)[C@H](CCN)NC(=O)[C@@H](CCN)NC(=O)[C@H](CC(=O)N[C@H](CCN)C(=O)N[C@H]2CCNC(=O)[C@H]([C@@H](C)O)NC(=O)[C@H](CCN)NC(=O)[C@H](CCN)NC(=O)[C@H](CC(C)C)NC(=O)[C@@H](Cc3ccccc3)NC(=O)[C@H](CCN)NC2=O)NC(=O)[C@H](CCN)NC(=O)[C@H](Cc2ccc(O)cc2)NC(=O)[C@H](CO)NC1=O` [Ex. 66] (I: cyclo([Nle]SY[Dab]D[dDab][Dab]W[Dab][Tle]AS[dP]P) / II: [dDab][Dab][Dab][dF]L[Dab][Dab]T; amide I:5-II:N; lactam II:2-II:C): the “Klebsiella pneumoniae SSI #3010 MIC” value in data set [1] was 1 µg/mL. Also, the “Acinetobacter baumannii DSM 30008 MIC” value in data set [2] worked out at 1 µg/mL. Moreover, the “Escherichia coli 926415 MIC” value in the data set with Escherichia coli 926415 was determined as 2 µg/mL. Moreover, in data set [3], the “Klebsiella pneumoniae 968733 MIC” value amounted to 2 µg/mL. The “Acinetobacter baumannii 872842 MIC” value in data set [4] was 4 µg/mL. Further, the “Pseudomonas aeruginosa ATCC 27853 MIC” value in data set [5] came out at 1 µg/mL. The “Escherichia coli ATCC 25922 MIC” value in data set [6] is 0.25 µg/mL. Also, the “Hemolysis at 100 μg/mL” value in data set [7] came out at 1%.
Turning to `CCCC[C@@H]1NC(=O)[C@@H]2CCCN2C(=O)[C@H]2CCCN2C(=O)[C@H](CO)NC(=O)[C@H](C)NC(=O)[C@H](C(C)(C)C)NC(=O)[C@H](CCN)NC(=O)[C@H](Cc2c[nH]c3ccccc23)NC(=O)[C@H](CCN)NC(=O)[C@@H](CCN)NC(=O)[C@H](CC(=O)N[C@@H](CCN)C(=O)N[C@H]2CCNC(=O)[C@H]([C@@H](C)O)NC(=O)[C@H](CCN)NC(=O)[C@H](CCN)NC(=O)[C@H](CC(C)C)NC(=O)[C@@H](Cc3ccccc3)NC(=O)[C@H](CCN)NC2=O)NC(=O)[C@H](CCN)NC(=O)[C@H](Cc2ccc(O)cc2)NC(=O)[C@H](CO)NC1=O` [Ex. 67] (I: cyclo([Nle]SY[Dab]D[dDab][Dab]W[Dab][Tle]AS[dP]P) / II: [Dab][Dab][Dab][dF]L[Dab][Dab]T; amide I:5-II:N; lactam II:2-II:C), the “Klebsiella pneumoniae SSI #3010 MIC” value in data set [1] is 2 µg/mL. In addition, the “Acinetobacter baumannii DSM 30008 MIC” value in data set [2] was determined as 1 µg/mL. The “Escherichia coli 926415 MIC” value in the data set on Escherichia coli 926415 was found to be 2 µg/mL. For the same compound, the “Klebsiella pneumoniae 968733 MIC” value in data set [3] was 2 µg/mL. Also, the “Acinetobacter baumannii 872842 MIC” value in data set [4] turned out to be 4 µg/mL. For the same compound, the “Pseudomonas aeruginosa ATCC 27853 MIC” value in data set [5] is 1 µg/mL. For the same compound, the “Escherichia coli ATCC 25922 MIC” value in data set [6] was found to be 1 µg/mL. The “Hemolysis at 100 μg/mL” value in data set [7] was less than 1%.
Regarding `CCCC[C@@H]1NC(=O)[C@@H]2CCCN2C(=O)[C@H]2CCCN2C(=O)[C@H](CO)NC(=O)[C@H](C)NC(=O)[C@H](C(C)(C)C)NC(=O)[C@H](CCN)NC(=O)[C@H](Cc2c[nH]c3ccccc23)NC(=O)[C@H](CCN)NC(=O)[C@@H](CCN)NC(=O)[C@H](CC(=O)N(C)[C@@H](CCN)C(=O)N[C@H]2CCNC(=O)[C@H]([C@@H](C)O)NC(=O)[C@H](CCN)NC(=O)[C@H](CCN)NC(=O)[C@H](CC(C)C)NC(=O)[C@@H](Cc3ccccc3)NC(=O)[C@H](CCN)NC2=O)NC(=O)[C@H](CCN)NC(=O)[C@H](Cc2ccc(O)cc2)NC(=O)[C@H](CO)NC1=O` [Ex. 69] (I: cyclo([Nle]SY[Dab]D[dDab][Dab]W[Dab][Tle]AS[dP]P) / II: [NMeDab][Dab][Dab][dF]L[Dab][Dab]T; amide I:5-II:N; lactam II:2-II:C), the “Klebsiella pneumoniae SSI #3010 MIC” value in data set [1] was 1 µg/mL. In data set [2], the “Acinetobacter baumannii DSM 30008 MIC” value came out at 1 µg/mL. Further, in the data set on Escherichia coli 926415, the “Escherichia coli 926415 MIC” value is 2 µg/mL. Further, the “Klebsiella pneumoniae 968733 MIC” value in data set [3] amounted to 2 µg/mL. In data set [4], the “Acinetobacter baumannii 872842 MIC” value was 4 µg/mL. The “Pseudomonas aeruginosa ATCC 27853 MIC” value in data set [5] is 1 µg/mL. In addition, the “Escherichia coli ATCC 25922 MIC” value in data set [6] was found to be 0.5 µg/mL. Besides, in data set [7], the “Hemolysis at 100 μg/mL” value is given as 2%.
In the case of `CCCC[C@@H]1NC(=O)[C@@H]2CCCN2C(=O)[C@H]2CCCN2C(=O)[C@H](CO)NC(=O)[C@H](C)NC(=O)[C@H](C(C)(C)C)NC(=O)[C@H](CCN)NC(=O)[C@H](Cc2c[nH]c3ccccc23)NC(=O)[C@H](CCC(=O)N[C@@H](CCN)C(=O)N[C@H]2CCNC(=O)[C@H]([C@@H](C)O)NC(=O)[C@H](CCN)NC(=O)[C@H](CCN)NC(=O)[C@H](CC(C)C)NC(=O)[C@@H](CC(C)C)NC(=O)[C@H](CCN)NC2=O)NC(=O)[C@@H](CCN)NC(=O)[C@H](CCCN)NC(=O)[C@H](CCN)NC(=O)[C@H](Cc2ccc(O)cc2)NC(=O)[C@H](CO)NC1=O` [Ex. 70] (I: cyclo([Nle]SY[Dab][Orn][dDab]EW[Dab][Tle]AS[dP]P) / II: [Dab][Dab][Dab][dL]L[Dab][Dab]T; amide I:7-II:N; lactam II:2-II:C), in data set [1], the “Klebsiella pneumoniae SSI #3010 MIC” value came out at 2 µg/mL. Also, the “Acinetobacter baumannii DSM 30008 MIC” value in data set [2] is 1 µg/mL. In addition, the “Escherichia coli 926415 MIC” value with Escherichia coli 926415 was 1 µg/mL. Also, the “Klebsiella pneumoniae 968733 MIC” value in data set [3] is 8 µg/mL. For the same compound, the “Acinetobacter baumannii 872842 MIC” value in data set [4] was found to be 2 µg/mL. In addition, the “Pseudomonas aeruginosa ATCC 27853 MIC” value in data set [5] was determined as 0.5 µg/mL. The “Escherichia coli ATCC 25922 MIC” value in data set [6] amounted to 1 µg/mL. For the same compound, the “Hemolysis at 100 μg/mL” value in data set [7] is on record as less than 1%.
Consider `CCCC[C@@H]1NC(=O)[C@@H]2CCCN2C(=O)[C@H]2CCCN2C(=O)[C@H](CO)NC(=O)[C@H](C)NC(=O)[C@H](C(C)(C)C)NC(=O)[C@H](CCN)NC(=O)[C@H](Cc2c[nH]c3ccccc23)NC(=O)[C@H](CCN)NC(=O)[C@@H](CCN)NC(=O)[C@H](CC(=O)N[C@@H](CCN)C(=O)N[C@H]2CCNC(=O)[C@H]([C@@H](C)O)NC(=O)[C@H](CCN)NC(=O)[C@H](CCN)NC(=O)[C@H](CC(C)C)NC(=O)[C@@H](CC(C)C)NC(=O)[C@H](CCN)NC2=O)NC(=O)[C@H](CCN)NC(=O)[C@H](Cc2ccc(O)cc2)NC(=O)[C@H](CO)NC1=O` [Ex. 71] (I: cyclo([Nle]SY[Dab]D[dDab][Dab]W[Dab][Tle]AS[dP]P) / II: [Dab][Dab][Dab][dL]L[Dab][Dab]T; amide I:5-II:N; lactam II:2-II:C), for which the “Klebsiella pneumoniae SSI #3010 MIC” value in data set [1] came out at 2 µg/mL. Further, the “Acinetobacter baumannii DSM 30008 MIC” value in data set [2] turned out to be 0.5 µg/mL. Further, the “Escherichia coli 926415 MIC” value with Escherichia coli 926415 was determined as 0.25 µg/mL. Besides, in data set [3], the “Klebsiella pneumoniae 968733 MIC” value came out at 2 µg/mL. Further, the “Acinetobacter baumannii 872842 MIC” value in data set [4] turned out to be 1 µg/mL. The “Pseudomonas aeruginosa ATCC 27853 MIC” value in data set [5] worked out at 0.5 µg/mL. Also, the “Escherichia coli ATCC 25922 MIC” value in data set [6] was determined as 0.125 µg/mL. The “Hemolysis at 100 μg/mL” value in data set [7] is listed as less than 1%.
